Data published in patent US6706663B2, “Herbicidal 3-heterocyclic substituted benzisothiazole and benzisoxazole compounds” (Wyeth, priority 2000, dated 2004).

Experiments:
[1] = test system: ECHCG (Echinochloa crus-galli); test: Postemergence herbicidal evaluation; assay type: in vivo, (L.) Beau
How it was run: (§1)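 Visual 0–9 injury scores versus control plants, covering stand, vigour, malformation, size, chlorosis and general appearance, taken four to five weeks post-spray and averaged over replicate tests. Plants were sprayed at roughly two weeks old and held on greenhouse benches.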

SETVI (Setaria viridis) = test: Postemergence herbicidal evaluation; assay type: in vivo, (L.) Beau
How it was run: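 Visual injury score (0-9: stand, vigor, malformation, size, chlorosis, overall appearance vs untreated control) taken four to five weeks post-spray. Two-week-old seedlings received about 0.0040 to 1.000 kg/ha active compound in acetone/water with 0.5% TWEEN 20.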

[2] = test system: TRZAWR (Wheat, Winter, cv Riband); test: Postemergence herbicidal evaluation; assay type: in vivo, Triticum aestivum
How it was run: as §1

[3] = test system: ABUTH (Abutilon theophrasti); test: Preemergence herbicidal evaluation; assay type: in vivo, Medic.; settings: preemergence, rated 4-5 weeks after treatment
[4] = test system: AMBEL (Ambrosia artemisifolia); test: Preemergence herbicidal evaluation; assay type: in vivo, L.; settings: preemergence, rated 4-5 weeks after treatment
How it was run: (§2)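 Visual 0-9 rating versus untreated control, taken four to five weeks post-treatment, scoring stand, vigor, malformation, size, chlorosis and overall appearance. Compound applied as aqueous acetone spray to freshly seeded soil cups, then kept under standard greenhouse care.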

[5] = test system: CASOB (Cassia obtusifolia); test: Preemergence herbicidal evaluation; assay type: in vivo, L.; settings: preemergence, rated 4-5 weeks after treatment
How it was run: as §2

[6] = test system: CHEAL (Chenopodium album); test: Preemergence herbicidal evaluation; assay type: in vivo, L.; settings: preemergence, rated 4-5 weeks after treatment
How it was run: as §2

[7] = test system: IPOHE (Ipomoea hederacea); test: Preemergence herbicidal evaluation; assay type: in vivo, (L.) Jacq.; settings: preemergence, rated 4-5 weeks after treatment
[8] = test system: GLXMAW (Soybean, Williams); test: Preemergence herbicidal evaluation; assay type: in vivo, Glycine max, (L.) Merr. cv Williams; settings: preemergence, rated 4-5 weeks after treatment
ZEAMX (Corn, Field) = test: Preemergence herbicidal evaluation; assay type: in vivo, Zea mays, L.; settings: preemergence, rated 4-5 weeks after treatment
[9] = test system: ECHORC (Echinochloa oryzoides); test: Flooded paddy, preemergence weed control; assay type: in vivo, Echinochloa oryzoides (Ard.) Fritsch.; settings: rated 3-4 weeks after treatment, 0-9 rating scale
How it was run: (§3)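 Scoring used a 0-9 visual scale relative to control. Before that, seeds or propagules were planted shallowly in silt loam and flooded to 1.5–3 cm, a depth maintained throughout, with greenhouse care during the test.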

CYPIR (Cyperus iria) = test: Flooded paddy, preemergence weed control; assay type: in vivo; settings: rated 3-4 weeks after treatment, 0-9 rating scale
How it was run: as §3

[10] = test system: CYPSE (Cyperus serotinus); test: Flooded paddy, preemergence weed control; assay type: in vivo, Rottb.; settings: rated 3-4 weeks after treatment, 0-9 rating scale
How it was run: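 Herbicidal effect was scored visually on a 0–9 scale against an untreated control 3–4 weeks after treatment. Compounds were applied preemergence as 50/50 v/v aqueous/acetone mixtures into flood water (1.5–3 cm deep over silt loam), at roughly 0.0080 to 0.1250 kg/ha active ingredient.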

[11] = test system: MOOVA (Monochoria vaginalis); test: Flooded paddy, preemergence weed control; assay type: in vivo, Presl.; settings: rated 3-4 weeks after treatment, 0-9 rating scale
How it was run: as §3

[12] = test system: SAGPY (Sagittaria pygmaea); test: Flooded paddy, preemergence weed control; assay type: in vivo, L.; settings: rated 3-4 weeks after treatment, 0-9 rating scale
How it was run: as §3

ORYSAT (Rice, Tebonnet) = test: Flooded paddy, post-transplant rice tolerance; assay type: in vivo, Oryza sativa, (L.) Tebonnet; settings: flooded paddy, post-transplant rice, rated 3-4 weeks after treatment, 0-9 rating scale
How it was run: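 Visual 0–9 injury rating against a control, covering stand, vigor, malformation, size, chlorosis and overall appearance. Treatment was post-transplant onto flooded containers (water 1.5–3 cm deep, silt loam) holding two ten-day-old cv. Tebonnet seedlings, maintained on greenhouse benches.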

SMILES: COC(=O)COc1ccsc1-c1nsc2ccc(-n3c(=O)cc(C(F)(F)F)n(C)c3=O)cc12 [Compound 22, Methyl [(2-[5-[3,6-dihydro-3-methyl-2,6-dioxo-4-(trifluoromethyl)-1(2H)-pyrimidinyl]-1,2-benzisothiazol-3-yl]-3-thienyl]oxy]acetate]
- Postemergence herbicidal rating, ECHCG ([1]; rate 0.0320 kg/ha): 0.0
- Postemergence herbicidal rating, ECHCG ([1]; rate 0.0620 kg/ha): 2.0
- Postemergence herbicidal rating, ECHCG ([1]; rate 0.1250 kg/ha): 6.0
- Postemergence herbicidal rating, SETVI (SETVI (Setaria viridis); rate 0.0320 kg/ha): 3.0
- Postemergence herbicidal rating, SETVI (SETVI (Setaria viridis); rate 0.0620 kg/ha): 2.0
- Postemergence herbicidal rating, SETVI (SETVI (Setaria viridis); rate 0.1250 kg/ha): 9.0
- Postemergence herbicidal rating, TRZAWR ([2]; rate 0.0320 kg/ha): 2.5
- Postemergence herbicidal rating, TRZAWR ([2]; rate 0.0620 kg/ha): 3.5
- Postemergence herbicidal rating, TRZAWR ([2]; rate 0.1250 kg/ha): 4.5
- ABUTH preemergence herbicidal rating ([3]; Rate 0.0620 kg/ha): 1.0
- ABUTH preemergence herbicidal rating ([3]; Rate 0.1250 kg/ha): 4.0
- ABUTH preemergence herbicidal rating ([3]; Rate 0.2500 kg/ha): 5.0
- AMBEL preemergence herbicidal rating ([4]; Rate 0.0620 kg/ha): 0.0
- AMBEL preemergence herbicidal rating ([4]; Rate 0.1250 kg/ha): 0.0
- AMBEL preemergence herbicidal rating ([4]; Rate 0.2500 kg/ha): 2.0
- CASOB preemergence herbicidal rating ([5]; Rate 0.0620 kg/ha): 0.0
- CASOB preemergence herbicidal rating ([5]; Rate 0.1250 kg/ha): 0.0
- CASOB preemergence herbicidal rating ([5]; Rate 0.2500 kg/ha): 1.0
- CHEAL preemergence herbicidal rating ([6]; Rate 0.0620 kg/ha): 0.0
- CHEAL preemergence herbicidal rating ([6]; Rate 0.1250 kg/ha): 3.0
- CHEAL preemergence herbicidal rating ([6]; Rate 0.2500 kg/ha): 9.0
- IPOHE preemergence herbicidal rating ([7]; Rate 0.0620 kg/ha): 0.0
- IPOHE preemergence herbicidal rating ([7]; Rate 0.1250 kg/ha): 0.0
- IPOHE preemergence herbicidal rating ([7]; Rate 0.2500 kg/ha): 0.0
- GLXMAW preemergence herbicidal rating ([8]; Rate 0.0620 kg/ha): 0.0
- GLXMAW preemergence herbicidal rating ([8]; Rate 0.1250 kg/ha): 0.0
- GLXMAW preemergence herbicidal rating ([8]; Rate 0.2500 kg/ha): 0.0
- ZEAMX preemergence herbicidal rating (ZEAMX (Corn, Field); Rate 0.0620 kg/ha): 0.0
- ZEAMX preemergence herbicidal rating (ZEAMX (Corn, Field); Rate 0.1250 kg/ha): 0.0
- ZEAMX preemergence herbicidal rating (ZEAMX (Corn, Field); Rate 0.2500 kg/ha): 1.0
- herbicidal rating, ECHORC ([9]; rate 0.0080 kg/ha): 0.0
- herbicidal rating, ECHORC ([9]; rate 0.0320 kg/ha): 0.0
- herbicidal rating, ECHORC ([9]; rate 0.1250 kg/ha): 5.0
- herbicidal rating, CYPIR (CYPIR (Cyperus iria); rate 0.0080 kg/ha): 0.0
- herbicidal rating, CYPIR (CYPIR (Cyperus iria); rate 0.0320 kg/ha): 2.5
- herbicidal rating, CYPIR (CYPIR (Cyperus iria); rate 0.1250 kg/ha): 3.0
- herbicidal rating, CYPSE ([10]; rate 0.0320 kg/ha): 0.0
- herbicidal rating, CYPSE ([10]; rate 0.1250 kg/ha): 0.0
- herbicidal rating, MOOVA ([11]; rate 0.0080 kg/ha): 0.0
- herbicidal rating, MOOVA ([11]; rate 0.0320 kg/ha): 4.5
- herbicidal rating, MOOVA ([11]; rate 0.1250 kg/ha): 4.5
- herbicidal rating, SAGPY ([12]; rate 0.0080 kg/ha): 0.0
- herbicidal rating, SAGPY ([12]; rate 0.0320 kg/ha): 0.0
- herbicidal rating, SAGPY ([12]; rate 0.1250 kg/ha): 0.0
- herbicidal rating, ORYSAT (rice tolerance) (ORYSAT (Rice, Tebonnet); rate 0.0080 kg/ha): 0.0
- herbicidal rating, ORYSAT (rice tolerance) (ORYSAT (Rice, Tebonnet); rate 0.0320 kg/ha): 2.0
- herbicidal rating, ORYSAT (rice tolerance) (ORYSAT (Rice, Tebonnet); rate 0.1250 kg/ha): 2.5

SMILES: Cn1c(C(F)(F)F)cc(=O)n(-c2ccc3snc(C4SCCS4)c3c2)c1=O [Compound 24, 3-[3-(1,3-dithiolan-2-yl)-1,2-benzisothiazol-5-yl]-1-methyl-6-(trifluoromethyl)uracil]
- Postemergence herbicidal rating, ECHCG ([1]; rate 0.0320 kg/ha): 0.0
- Postemergence herbicidal rating, ECHCG ([1]; rate 0.0620 kg/ha): 2.0
- Postemergence herbicidal rating, SETVI (SETVI (Setaria viridis); rate 0.0320 kg/ha): 0.0
- Postemergence herbicidal rating, SETVI (SETVI (Setaria viridis); rate 0.0620 kg/ha): 3.0
- Postemergence herbicidal rating, TRZAWR ([2]; rate 0.0320 kg/ha): 4.0
- Postemergence herbicidal rating, TRZAWR ([2]; rate 0.0620 kg/ha): 4.0
- ABUTH preemergence herbicidal rating ([3]; Rate 0.0620 kg/ha): 3.5
- ABUTH preemergence herbicidal rating ([3]; Rate 0.1250 kg/ha): 7.0
- ABUTH preemergence herbicidal rating ([3]; Rate 0.2500 kg/ha): 9.0
- AMBEL preemergence herbicidal rating ([4]; Rate 0.0620 kg/ha): 4.5
- AMBEL preemergence herbicidal rating ([4]; Rate 0.1250 kg/ha): 8.0
- AMBEL preemergence herbicidal rating ([4]; Rate 0.2500 kg/ha): 9.0
- CASOB preemergence herbicidal rating ([5]; Rate 0.0620 kg/ha): 0.0
- CASOB preemergence herbicidal rating ([5]; Rate 0.1250 kg/ha): 0.0
- CASOB preemergence herbicidal rating ([5]; Rate 0.2500 kg/ha): 3.0
- CHEAL preemergence herbicidal rating ([6]; Rate 0.0620 kg/ha): 7.5
- CHEAL preemergence herbicidal rating ([6]; Rate 0.1250 kg/ha): 9.0
- CHEAL preemergence herbicidal rating ([6]; Rate 0.2500 kg/ha): 9.0
- IPOHE preemergence herbicidal rating ([7]; Rate 0.0620 kg/ha): 2.0
- IPOHE preemergence herbicidal rating ([7]; Rate 0.1250 kg/ha): 6.5
- IPOHE preemergence herbicidal rating ([7]; Rate 0.2500 kg/ha): 7.0
- GLXMAW preemergence herbicidal rating ([8]; Rate 0.0620 kg/ha): 2.0
- GLXMAW preemergence herbicidal rating ([8]; Rate 0.1250 kg/ha): 2.5
- GLXMAW preemergence herbicidal rating ([8]; Rate 0.2500 kg/ha): 4.0
- ZEAMX preemergence herbicidal rating (ZEAMX (Corn, Field); Rate 0.0620 kg/ha): 0.0
- ZEAMX preemergence herbicidal rating (ZEAMX (Corn, Field); Rate 0.1250 kg/ha): 1.0
- ZEAMX preemergence herbicidal rating (ZEAMX (Corn, Field); Rate 0.2500 kg/ha): 3.0
- herbicidal rating, ECHORC ([9]; rate 0.0320 kg/ha): 5.0
- herbicidal rating, ECHORC ([9]; rate 0.1250 kg/ha): 7.0
- herbicidal rating, CYPIR (CYPIR (Cyperus iria); rate 0.0320 kg/ha): 0.0
- herbicidal rating, CYPIR (CYPIR (Cyperus iria); rate 0.1250 kg/ha): 5.0
- herbicidal rating, CYPSE ([10]; rate 0.0320 kg/ha): 0.0
- herbicidal rating, CYPSE ([10]; rate 0.1250 kg/ha): 2.0
- herbicidal rating, MOOVA ([11]; rate 0.0320 kg/ha): 5.0
- herbicidal rating, MOOVA ([11]; rate 0.1250 kg/ha): 8.0
- herbicidal rating, SAGPY ([12]; rate 0.0320 kg/ha): 0.0
- herbicidal rating, SAGPY ([12]; rate 0.1250 kg/ha): 5.0
- herbicidal rating, ORYSAT (rice tolerance) (ORYSAT (Rice, Tebonnet); rate 0.0320 kg/ha): 0.0
